Test results as given in publication doi:10.1101/2025.07.04.663216, “A Computational Workflow for Structure-Guided Design of Potent and Selective Kinase Peptide Substrates” (bioRxiv, 2025).
Each block holds one sequence with its values, some of them ahead of it.

Assays:
[1] = target: T1, MET (Homo sapiens, UniProt P08581); test: ADP-Glo kinase assay, MET; format: biochemical; details: ADP-Glo luminescence; vs parent EEPLYWSFPAK; enzyme 1.25–10 nM, ATP 10 μM, peptide 1 μM, 90 min, 25°C; repeated twice, mean
T1 construct: purchased Carna Biosciences 08–151
Source text: (§1) To experimentally evaluate the computationally optimized peptide sequences, we chose five kinases based on commercial availability. Using the ipAE, pLDDT, and ipTM scores, we ranked the Subtimizer-designed sequences, and for each kinase we selected two to five peptides for synthesis and experimental testing. We evaluated the activity of the peptides using the ADP-Glo kinase assay, a luminescence-based method that quantifies ADP production as a measure of kinase activity. First, we measured the ADP-Glo signals for the parental peptide and the baseline (no enzyme background) for the five kinases. […] The varying signal intensities across different kinases reflect differences in their specific activities and the efficiency of the parent peptide substrates.
(§2) ADP-Glo Kit (ADP-Glo™ Kinase Assay, Cat#V6930) was obtained from Promega. The kinases ALK (#08–518), MET (#08–151), ROS1 (#08–163), and EGFR L858R (#08–502) were products of Carna Biosciences. SRC was expressed and purified as previously reported. Substrate peptides were obtained from Biomatik Corporation (Wilmington, DE, USA). All components were equilibrated to 25°C prior to setting up reactions in 384-well microplates (White ProxiPlate 384-shallow well Plus). […] Experiments were repeated twice with results expressed as mean ± standard deviation. Luminescence was detected on a Synergy Neo2 plate reader.

[2] = target: T2, ROS1 (Homo sapiens, UniProt P08922); test: Peptide selectivity assay (LIMS-kinase), ROS1; format: biochemical; details: LIMS-kinase ADP production; ROS1 0.63 nM, peptides 20.3 μM, ATP 100 μM, 30 min, room temperature; repeated twice
T2 construct: purchased Carna Biosciences 08–163
T2 sequence (P08922 28-2347): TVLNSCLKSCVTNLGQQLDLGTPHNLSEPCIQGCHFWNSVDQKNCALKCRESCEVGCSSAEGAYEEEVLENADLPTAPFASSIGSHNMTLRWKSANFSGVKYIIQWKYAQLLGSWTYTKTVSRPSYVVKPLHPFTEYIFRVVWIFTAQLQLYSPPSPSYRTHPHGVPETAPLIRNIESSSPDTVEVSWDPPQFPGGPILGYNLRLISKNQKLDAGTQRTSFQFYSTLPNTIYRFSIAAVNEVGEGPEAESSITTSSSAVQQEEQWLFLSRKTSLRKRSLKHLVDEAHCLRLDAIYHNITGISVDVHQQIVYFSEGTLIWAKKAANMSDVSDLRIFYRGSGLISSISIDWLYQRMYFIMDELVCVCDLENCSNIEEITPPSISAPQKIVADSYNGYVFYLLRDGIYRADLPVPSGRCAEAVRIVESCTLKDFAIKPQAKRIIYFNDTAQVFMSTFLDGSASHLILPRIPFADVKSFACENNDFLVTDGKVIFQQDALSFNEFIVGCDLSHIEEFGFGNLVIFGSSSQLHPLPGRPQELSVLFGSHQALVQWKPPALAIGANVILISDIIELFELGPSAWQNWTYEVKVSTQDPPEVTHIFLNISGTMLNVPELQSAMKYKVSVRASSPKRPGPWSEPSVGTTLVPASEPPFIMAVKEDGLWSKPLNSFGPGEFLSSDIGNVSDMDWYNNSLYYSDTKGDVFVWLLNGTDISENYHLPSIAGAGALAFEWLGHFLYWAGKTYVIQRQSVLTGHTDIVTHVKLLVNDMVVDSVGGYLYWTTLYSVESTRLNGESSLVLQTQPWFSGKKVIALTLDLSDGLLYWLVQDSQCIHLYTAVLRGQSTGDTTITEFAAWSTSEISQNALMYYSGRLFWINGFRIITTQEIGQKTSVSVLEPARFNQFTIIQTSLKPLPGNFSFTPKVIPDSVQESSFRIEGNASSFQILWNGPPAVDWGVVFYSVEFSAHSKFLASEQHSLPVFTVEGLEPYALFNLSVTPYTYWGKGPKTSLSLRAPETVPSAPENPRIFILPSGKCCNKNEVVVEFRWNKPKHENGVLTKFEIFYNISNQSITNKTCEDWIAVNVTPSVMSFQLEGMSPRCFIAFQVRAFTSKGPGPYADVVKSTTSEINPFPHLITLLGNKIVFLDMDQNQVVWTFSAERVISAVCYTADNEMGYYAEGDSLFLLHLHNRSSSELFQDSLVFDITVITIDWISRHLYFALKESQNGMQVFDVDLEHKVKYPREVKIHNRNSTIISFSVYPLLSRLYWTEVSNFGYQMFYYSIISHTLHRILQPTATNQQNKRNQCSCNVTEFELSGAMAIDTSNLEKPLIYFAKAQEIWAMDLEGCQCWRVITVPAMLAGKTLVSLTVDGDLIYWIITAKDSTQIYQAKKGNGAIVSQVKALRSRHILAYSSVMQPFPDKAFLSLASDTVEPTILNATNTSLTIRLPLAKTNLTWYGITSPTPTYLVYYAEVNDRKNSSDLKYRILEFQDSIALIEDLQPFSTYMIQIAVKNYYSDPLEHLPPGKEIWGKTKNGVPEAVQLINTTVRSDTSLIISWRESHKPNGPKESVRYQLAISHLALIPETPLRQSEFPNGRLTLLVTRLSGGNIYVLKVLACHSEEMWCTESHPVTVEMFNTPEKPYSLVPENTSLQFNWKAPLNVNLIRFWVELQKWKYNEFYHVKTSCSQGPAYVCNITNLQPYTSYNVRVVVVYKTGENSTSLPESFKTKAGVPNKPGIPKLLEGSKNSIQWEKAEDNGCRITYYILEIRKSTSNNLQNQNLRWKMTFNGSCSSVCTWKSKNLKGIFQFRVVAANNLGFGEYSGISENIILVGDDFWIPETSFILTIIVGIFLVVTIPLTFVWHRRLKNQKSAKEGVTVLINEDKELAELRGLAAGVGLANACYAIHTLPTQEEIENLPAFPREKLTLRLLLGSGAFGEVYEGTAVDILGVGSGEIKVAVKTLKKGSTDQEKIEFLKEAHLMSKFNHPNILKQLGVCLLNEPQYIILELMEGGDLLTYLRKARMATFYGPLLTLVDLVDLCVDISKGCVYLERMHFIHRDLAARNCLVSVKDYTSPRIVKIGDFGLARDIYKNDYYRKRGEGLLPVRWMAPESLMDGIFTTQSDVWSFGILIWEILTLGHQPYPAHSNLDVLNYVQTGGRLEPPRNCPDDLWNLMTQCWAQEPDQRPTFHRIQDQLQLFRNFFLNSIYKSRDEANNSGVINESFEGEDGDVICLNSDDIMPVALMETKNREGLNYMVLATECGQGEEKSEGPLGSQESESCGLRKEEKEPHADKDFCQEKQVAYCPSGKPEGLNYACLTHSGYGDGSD
Protocol: (§3) All components equilibrated to 25°C prior to setting up reactions. All reagents added manually. Peptides added to 384-well microplates (Costar 3657 round bottom polypropylene). A pre-mixed buffer, enzyme, and ATP solution was added to initiate reaction. Reaction was quenched with 1% formic acid (final) following 30-minute incubation at room temperature. Kinase activity was evaluated by measuring MS signal of ADP-specific fragment ion. Experiments were repeated twice, with results expressed as mean ± standard deviation. Time 0 (background) values were subtracted from subsequent time-points.
(§4) RapidFire liquid chromatography and mass spectrometry methods were performed as previously described.

[3] = target: T1, MET; test: LIMS-kinase assay kinetic analysis (Km), MET; format: biochemical; details: for Km: LIMS-kinase, MS signal of ADP fragment, ATP 100 μM, peptide from 300–400 μM, 2- or 3-fold dilutions, 25°C, Michaelis-Menten fit, repeated twice
Source text: (§5) Figures 3A and 3B illustrate the schematic of a kinase assay reaction and the multiple reaction monitoring (MRM) phosphorylation detection system employed in the LIMS-kinase assay. The MRM setup comprises a RapidFire liquid chromatography sampler (Agilent) coupled to a triple quadrupole mass spectrometer (AB Sciex 6500). Quadrupole 1 (Q1) acts as a mass filter, selecting precursor ions based on their mass-to-charge ratios. Q2 functions as a collision cell, fragmenting these precursor ions into product ions. Q3 serves as an additional mass filter, specifically monitoring desired product ion fragments originating from the Q1-selected parent ion (Figure 3B).
(§6) To determine kinase activity, we directly measured ADP production by following specific ADP ion fragments rather than quantifying phosphorylated peptide fragments as in our original published LIMS-kinase assay. We chose to measure ADP production rather than the phosphorylated peptide product to avoid potential variations in ionization efficiency or fragmentation patterns that can arise from differences in amino acid sequences and physicochemical properties of different peptide substrates. This ensures not only a more direct and unbiased comparison of potency across different peptides, but also broad applicability of optimized substrates across different assay platforms. Initial tests confirmed that we were able to selectively detect an ADP fragment in kinase/peptide reactions (Figure S5). The ADP signal was enzyme concentration- and time-dependent, consistent with the expected response of a functional assay. […] We evaluated two enzyme concentrations with the objective of selecting the concentration where activity was linear to 60 minutes with a strong signal (Figure S5). […]
(§7) Final working concentrations of enzyme varied by kinase. […] Activity was evaluated by measuring MS signal of ADP-specific fragment ion. Experiments were repeated twice, with results expressed as mean ± standard deviation.
(§8) Km was evaluated by linear regression of the first three time-points at each concentration of peptide. […]

[4] = target: T2, ROS1; test: LIMS-kinase assay kinetic analysis (Km), ROS1; format: biochemical; details: for Km: LIMS-kinase, MS signal of ADP fragment, ATP 100 μM, peptide from 300–400 μM, 2- or 3-fold dilutions, 25°C, Michaelis-Menten fit, repeated twice
Source text: as §5, §6, §7, §8

[5] = test system: EGFR L858R; test: ADP-Glo kinase assay, EGFR L858R; format: biochemical; details: ADP-Glo luminescence; vs parent KEEIYFFF; enzyme 1.25–10 nM, ATP 10 μM, peptide 1 μM, 90 min, 25°C; repeated twice, mean
Source text: as §1, §2

[6] = target: T3, ALK (Homo sapiens, UniProt Q9UM73); test: LIMS-kinase assay kinetic analysis (Km), ALK; format: biochemical; details: MS signal of ADP fragment, ATP 100 μM, peptide from 300–400 μM, 2- or 3-fold dilutions, 25°C, Michaelis-Menten fit, repeated twice
T3 construct: purchased Carna Biosciences 08–518
T3 sequence (Q9UM73 19-1620): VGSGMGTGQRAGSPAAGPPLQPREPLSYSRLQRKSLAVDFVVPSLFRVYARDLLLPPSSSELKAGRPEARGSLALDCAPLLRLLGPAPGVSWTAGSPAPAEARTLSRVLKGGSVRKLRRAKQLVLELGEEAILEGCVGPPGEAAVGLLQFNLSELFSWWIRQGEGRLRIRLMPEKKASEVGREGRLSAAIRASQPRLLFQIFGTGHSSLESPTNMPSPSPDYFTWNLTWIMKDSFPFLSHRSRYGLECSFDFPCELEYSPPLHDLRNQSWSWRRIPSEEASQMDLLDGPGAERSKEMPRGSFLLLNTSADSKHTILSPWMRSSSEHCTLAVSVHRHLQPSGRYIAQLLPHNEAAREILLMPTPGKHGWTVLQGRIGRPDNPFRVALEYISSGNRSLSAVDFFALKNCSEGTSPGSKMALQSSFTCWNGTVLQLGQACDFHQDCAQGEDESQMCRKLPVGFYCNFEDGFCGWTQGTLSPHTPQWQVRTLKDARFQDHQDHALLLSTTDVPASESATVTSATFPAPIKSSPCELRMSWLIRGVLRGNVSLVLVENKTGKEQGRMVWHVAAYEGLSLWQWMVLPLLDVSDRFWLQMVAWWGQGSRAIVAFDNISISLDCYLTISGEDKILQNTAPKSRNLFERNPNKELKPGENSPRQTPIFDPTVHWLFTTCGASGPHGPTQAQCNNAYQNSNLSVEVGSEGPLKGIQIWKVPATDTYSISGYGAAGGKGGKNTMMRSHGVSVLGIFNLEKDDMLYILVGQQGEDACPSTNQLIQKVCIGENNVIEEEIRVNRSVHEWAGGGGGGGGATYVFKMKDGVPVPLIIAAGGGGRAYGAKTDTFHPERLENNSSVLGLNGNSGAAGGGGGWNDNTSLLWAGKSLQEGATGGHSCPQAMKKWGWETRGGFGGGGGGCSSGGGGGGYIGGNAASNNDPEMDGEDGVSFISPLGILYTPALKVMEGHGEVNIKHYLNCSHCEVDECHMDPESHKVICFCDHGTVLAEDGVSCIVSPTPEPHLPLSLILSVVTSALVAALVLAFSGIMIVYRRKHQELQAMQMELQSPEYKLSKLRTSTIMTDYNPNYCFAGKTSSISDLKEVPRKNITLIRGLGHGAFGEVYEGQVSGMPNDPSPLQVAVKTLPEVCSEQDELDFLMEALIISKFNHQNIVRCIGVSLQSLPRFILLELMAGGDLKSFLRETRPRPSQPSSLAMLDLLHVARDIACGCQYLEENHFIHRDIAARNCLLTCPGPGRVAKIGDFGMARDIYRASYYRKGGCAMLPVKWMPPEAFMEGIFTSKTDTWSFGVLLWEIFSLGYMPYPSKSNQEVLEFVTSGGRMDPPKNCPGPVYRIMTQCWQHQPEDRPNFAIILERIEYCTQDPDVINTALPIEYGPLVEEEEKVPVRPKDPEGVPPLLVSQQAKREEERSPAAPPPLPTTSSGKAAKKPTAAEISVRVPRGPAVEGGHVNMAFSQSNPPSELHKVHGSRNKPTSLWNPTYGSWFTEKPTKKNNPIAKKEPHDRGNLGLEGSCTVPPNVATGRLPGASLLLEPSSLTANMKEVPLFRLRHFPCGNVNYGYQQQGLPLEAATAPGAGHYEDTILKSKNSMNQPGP
Source text: as §5
To determine kinase activity, we directly measured ADP production by following specific ADP ion fragments rather than quantifying phosphorylated peptide fragments as in our original published LIMS-kinase assay. […] We evaluated two enzyme concentrations with the objective of selecting the concentration where activity was linear to 60 minutes with a strong signal (Figure S5). […]
as §7, §8

[7] = target: T3, ALK; test: ADP-Glo kinase assay, ALK; format: biochemical; details: ADP-Glo luminescence; vs parent KSRGDYMTMQIG (axltide); enzyme 1.25–10 nM, ATP 10 μM, peptide 1 μM, 90 min, 25°C; repeated twice, mean
Source text: as §1, §2

[8] = Peptide solubility observed in Km study; format: physicochemical; details: observation in the Km study with EGFR L858R; peptide concentrations started at 300–400 μM
Source text: We ran LIMS-kinase assays using a range of peptide concentrations. We plotted the initial reaction rate for each concentration to generate Michaelis-Menten curves. […] We could not run a successful Km study with EGFR L858R due to the insolubility of the parental MS-csktide1 peptide at high concentrations, similar to our previous observation.

[9] = target: T2, ROS1; test: ADP-Glo kinase assay, ROS1; format: biochemical; details: ADP-Glo luminescence; vs parent EEPLYWSFPAK; enzyme 1.25–10 nM, ATP 10 μM, peptide 1 μM, 90 min, 25°C; repeated twice, mean
Source text: as §1, §2

[10] = target: T1, MET; test: Peptide selectivity assay (LIMS-kinase), MET; format: biochemical; details: LIMS-kinase ADP production; MET 5 nM, peptides 134 μM, ATP 100 μM, 30 min, room temperature; repeated twice
Protocol: as §3, §4

Sequence: EEPLYWSFPAK [MS-srctide, parental peptide substrate … for many kinases including MET and ROS1, reference compound]
Km [4]: 47.6 µM
Km [3]: 288 µM

Sequence: EPEDYAPV [egfr-s1, designed EGFR L858R peptide substrate EPEDYAPV]
relative percentage change (increase) in kinase activity compared to parent peptide [5]: about 10%

Sequence: HDPEDYMWVEMR [alk-s3, designed ALK peptide substrate …]
Km [6]: 14.1 µM

Sequence: HSPEDYMWVEME [alk-s5, designed ALK peptide substrate …]
relative percentage change (increase) in kinase activity compared to parent peptide [7]: 146%

Sequence: KEEIYFFF [MS-csktide1, parental peptide substrate KEEIYFFF used for EGFR L858R]
solubility at high concentrations [8]: insolubility

Sequence: KSRGDYMTMQIG [MS-axltide, parental peptide substrate … used for ALK, reference compound]
Km [6]: 18.4 µM

Sequence: PDPDDYMLMEIG [alk-s4, designed ALK peptide substrate …]
relative percentage change (increase) in kinase activity compared to parent peptide [7]: 130%

Second part, the sequence after the results:

relative percentage change (increase) in kinase activity compared to parent peptide [1]: approximately 41%
reduction in ROS1 kinase activity compared to ros1-s2 [2]: over 11 fold
Km [3]: 134 µM
reduction in Km vs parental MS-srctide ([3]; MET, Km 288 to 134 µM): over 2 fold
Sequence: EEPAYVALPAK [met-s1]

relative percentage change (increase) in kinase activity compared to parent peptide [1]: ~11%
Sequence: EEPLYVALPAP [met-s2, designed MET peptide substrate …]

relative percentage change (increase) in kinase activity compared to parent peptide [5]: approximately 5%
Sequence: EPEGYAPL [egfr-s2]

Km [4]: 20.3 µM
improvement in apparent binding affinity (Km) vs parental MS-srctide ([4]; ROS1, Km 47.59 to 20.30 µM): > 2 fold
relative percentage change (increase) in kinase activity compared to parent peptide [9]: about 35%
reduction in MET kinase activity compared to met-s1 [10]: over 4 fold
Sequence: KEPFYMRLKPK [ros1-s2]
